From patent US10479792B2, “Compounds” (GlaxoSmithKline Intellectual Property Development Limited, priority 2015, dated 2019)

What was measured:
RnH9c2 cells = assay: Trypanosoma cruzi intracellular assay (Assay 2), host cell cytotoxicity; assay type: cell-based; conditions: rat, H9C2 cardiomyocytes infected with Trypanosoma cruzi, 72 h incubation, read-out: cytotoxicity against RnH9c2 cells, pEC50 (converted)
Method: (§1) Compounds were dispensed into black 384-well assay plates (Greiner) by acoustic dispensing (LabCyte ECHO). For potency determinations, eleven-point, one in three dilution curves were generated, with a top concentration of 50 μM. H9C2 rat cardiomyocytes cells were dispensed in T225 tissue culture flasks and after 4 hours they were infected during 18 hours with T. cruzi trypomastigotes in the same T225 tissue culture flasks at a multiplicity of infection of 1. Next, any remaining free trypomastigotes were washed away with PBS and the infected H9C2 cells were harvested by trypsinisation. The infected H9C2 cells were then plated into 384-well plates containing the compounds to be tested, at 2500 cells per well in DMEM media with 2% FBS, 1% Penicillin/Streptomicin, 2 mM L-Glutamine, 1 mM Na Pyruvate and 25 mM HEPES. After 72 h incubation at 37° C. in presence of 5% CO2, the plates were fixed and stained with 4% formaldehyde and 2 μM Draq5 for 3 hours at room temperature. The plates were imaged on a Perkin Elmer Opera high-content imaging system using a 20× air objective. Images were analyzed using the Acapella building blocks system (Perkin Elmer). The image analysis algorithm first identified the H9C2 nuclei followed by demarcation of the cytoplasm and identification of intracellular amastigotes. This algorithm reported mean number of parasites per H9C2 cell, the percentage of infected H9C2 cells and the total number of H9C2 cells.

THP-1 cells = assay: Leishmania donovani intracellular assay (Assay 5), THP-1 cytotoxicity; assay type: cell-based; conditions: human, 96 h incubation, read-out: cytotoxicity against THP-1 cells, pEC50 (converted)
Method: (§2) Assay 5. Leishmania donovani Intracellular Assay
(§3) Compounds were dispensed into black 384-well assay plates (Greiner) by acoustic dispensing (LabCyte ECHO). For potency determinations, eleven-point, one in three dilution curves were generated, with a top concentration of 50 μM. THP-1 human monocytes cells were dispensed in T225 tissue culture flasks and differentiated using 30 nM of PMA, after 24 hours they were infected overnight using Leishmania donovani expressing Green Fluorescent Protein (eGFP) amastigotes in the same T225 tissue culture flasks at a multiplicity of infection of 10. Next, any remaining free amastigotes were washed away with PBS and the infected THP-1 cells were harvested by trypsinisation. The infected cells were then plated into 384-well plates containing the compounds to be tested, at 3000 cells per well in RPMI media with 2% FBS and 25 mM Sodium bicarbonate. After 96 h incubation at 37° C. in presence of 5% CO2, the plates were fixed with 4% formaldehyde for 30 minutes, washed with PBS and stained with 0.1 mg/mL of DAPI for 30 minutes and washed again with PBS. The plates were imaged on a Perkin Elmer Opera high-content imaging system using a 20× air objective with two expositions, one for DAPI stain and other for eGFP. Images were analysed using the Acapella building blocks system (Perkin Elmer). The image analysis algorithm first identified the THP-1 nuclei followed by demarcation of the cytoplasm and identification of intracellular amastigotes. This algorithm reported mean number of parasites per THP-1 cell, the percentage of infected THP-1 cells and the total number of THP-1 cells.

Leishmania donovani [1] = assay: Leishmania donovani intracellular assay (Assay 5); assay type: cell-based; conditions: THP-1, 96 h, eGFP amastigotes in THP-1 cells, 96 h incubation, read-out: pEC50 value against Leishmania donovani (converted)
Method: as §2, §3

[2] = Solubility assay, ChemiLuminescent Nitrogen Detection (CLND) (Assay 4); assay type: physicochemical; conditions: phosphate buffered saline (PBS) pH 7.4, aqueous buffer, kinetic from dmso stock, PBS pH 7.4, from 10 mM DMSO stock, 1 h at room temperature
Method: Assay 4. Solubility Assay—ChemiLuminescent Nitrogen Detection (CLND) I. Compounds A 10 mM DMSO stock solution of the compound was prepared. Solvents and Buffers Organic solvents of HPLC grade were used. Ultra pure water (Milli-Q grade) was used. Buffers were prepared with ultra pure water and filtered using 0.45μ cameo filters. Aqueous Buffer Solution: Phosphate Buffer Saline (PBS) @ pH 7.4 was prepared from Sigma dry powder packs, P-3813. Each one was diluted to 1 liter with deionised water. The pH was checked before the solution was used II. Procedures. • a) DMSO concentration was measured. DMSO blanks and ondansetron and caffeine standards were added to the plate (column 12, A, B, C, & D for the blanks and E, F, G, & H for the standards). Plates were covered with foil. When the UV and CLND detectors baselines appeared to be stable, the CLND was zeroed. • b) Once DMSO concentration measurements were complete, a filtration plate was prepared from each parent plate by diluting 5 μl of the 10 mM DMSO stock solution to […] with pH7.4 PBS. • c) After the plates were prepared, they were covered with a plate lid and left to incubate for 1 h at room temperature. • d) Sample was filtered using MILLIPORE MultiScreen Solubility (MSSLBPC10) Filtration Plates, to NUNC V well plates. […]

Leishmania donovani [3] = assay: Intramacrophage Leishmania donovani assay (Assay 1), average number of amastigotes per cell (potency readout); assay type: cell-based; conditions: THP-1, 96 h, amastigotes in PMA-differentiated THP-1 macrophages, 96 h incubation, read-out: pEC50 value against Leishmania donovani (converted)
Method: Assay 1. Intramacrophage Leishmania donovani Assay
The intramacrophage Leishmania assay was performed using a modified version of the method described in De Rycker et al. (Antimicrob Agents Chemother. 2013 July; 57(7):2913-22. Comparison of a high-throughput high-content intracellular Leishmania donovani assay with an axenic amastigote assay. De Rycker M, Hallyburton I, Thomas J, Campbell L, Wyllie S, Joshi D, Cameron S, Gilbert I H, Wyatt P G, Frearson J A, Fairlamb A H, Gray D W.). Procedure: 350 nl of compound was pre-dispensed into 384 well sterile intermediary plates. For single point screening, amphotericin B was added to all wells of column 24 as a positive control (final concentration 2 μM) and DMSO to column 23. For potency determinations, ten-point, one in three dilution curves were created with the highest concentration being 50 μM and on each plate a control curve of amphotericin B was included. Controls were as follows: columns 11 and 12: DMSO, columns 23 and 24: amphotericin B (final concentration 2 μM). To the intermediary plates, 35 μl of THP-1 media was added and plates were shaken for >5 min to ensure complete mixing. THP-1 cells (8,000 per well, 50 μl) were plated into black clear-bottom 384 well plates (Corning) in presence of 20 nM PMA. After 20 min at RT, the plates were incubated at 37° C. under 5% CO2 in a humidified incubator for 75 h. The cells were then washed with […] sterile phosphate buffered saline (PBS) supplemented with 1 mM CaCl2, 0.5 mM MgCl2, 0.1% (w/v) bovine serum albumin (PBS-A) and amastigotes were added to all wells at a multiplicity of infection of 5 (40,000 amastigotes per well). After 40 min at RT, plates were returned to the incubator. Amastigotes were incubated in the presence of THP-1 macrophages for 16 h. Any remaining extracellular amastigotes were subsequently removed with an overflow wash of 1 mL PBS-A per well (wash buffer is being aspirated from the top of the well as it is being dispensed) followed by addition of 25 μl of the compound pre-dilutions using a Fluidx Ipette-pro pipetting station. The final dilution of each compound was 200-fold. Plates were incubated for 96 h and then washed (250 μl PBS-A) and fixed (4% (v/v) formaldehyde-PBS, 30 min, RT). After fixation, the wells were washed with 250 μl PBS, stained (10 μg/mL DAPI, 0.4 μg mL-1 HCS Cellmask Deep Red in PBS+0.1% (v/v) Triton X-100, 30 min, RT) and washed with 250 μl PBS. Finally, PBS+0.05% (v/v) thimerosal was added to the wells, the plates were sealed and imaged on a high-content microscope (GE IN Cell 2000) using a 10× objective. Image analysis was carried out with GE IN Cell Analyzer 1000 Workstation using the “Multi Target Analysis” module. Settings for segmentation were as follows: nuclei: minimum area: 142.384 μm2, sensitivity: 81, method: top-hat; cells: characteristic area: 2500 μm2, sensitivity: 60, method: multiscale top-hat; organelles (amastigotes): granule size 1-3, 3 scales, sensitivity: 90, detection in entire cell. For each well, i) THP-1 cell count (cytotoxicity readout) and ii) average number of amastigotes per cell (potency readout) were calculated, both in terms of pEC50 values.

Trypanosoma cruzi = Trypanosoma cruzi intracellular assay (Assay 2); assay type: cell-based; conditions: infected H9C2 rat cardiomyocytes, 72 h incubation, read-out: pEC50 value against Trypanosoma cruzi (converted)
Method: as §1

Row | Structure (SMILES) | EC50 at 72 h (RnH9c2 cells) | EC50 at 96 h (THP-1 cells) | EC50 (Leishmania donovani [1]) | solubility at 1 h [2] | EC50 (Leishmania donovani [3]) | EC50 (Trypanosoma cruzi)
1 | COc1cccc(-c2cnc3nc(-c4cc(NC(=O)N5CCCC5)ccc4F)ccn23)n1.Cl [Example 28, N-(4-fluoro-3-(3-(6-methoxypyridin-2-yl)imidazo[1,2-a]pyrimidin-7-yl)phenyl)pyrrolidine-1-carboxamide] | 7.94 µM | 12.6 to 50.1 µM | 0.126 to 10 µM | < 1 µM | – | –
2 | Cc1cccc(-c2cnc3nc(-c4cc(NC(=O)N5CCCC5)ccc4F)ccn23)n1 [Example 37, N-(4-fluoro-3-(3-(6-methylpyridin-2-yl)imidazo[1,2-a]pyrimidin-7-yl)phenyl)pyrrolidine-1-carboxamide] | 25.1 µM | 12.6 to 50.1 µM | 0.126 to 10 µM | – | – | –
3 | O=C(Nc1ccc(F)c(-c2ccn3c(-c4ccccn4)cnc3n2)c1)N1CCCC1 [Example 26, N-(4-fluoro-3-(3-(pyridin-2-yl)imidazo[1,2-a]pyrimidin-7-yl)phenyl)pyrrolidine-1-carboxamide] | 39.8 µM | 12.6 to 50.1 µM | 0.126 to 10 µM | – | 0.251 to 10 µM | –
4 | O=C(Nc1cccc(-c2ccn3c(-c4ccccc4)cnc3n2)c1)N1CCCC1 [Example 2, N-(3-(3-phenylimidazo[1,2-a]pyrimidin-7-yl)phenyl)pyrrolidine-1-carboxamide] | – | 12.6 to 50.1 µM | 0.126 to 10 µM | – | 0.251 to 10 µM | –
5 | CC(C)Cc1cnc2nc(-c3cc(NC(=O)N4CCCC4)ccc3F)ccn12 [Example 17, N-(4-fluoro-3-(3-isobutylimidazo[1,2-a]pyrimidin-7-yl)phenyl)pyrrolidine-1-carboxamide] | 5.01 µM | – | 0.126 to 10 µM | – | 0.251 to 10 µM | –
6 | O=C(Nc1ccc(F)c(-c2ccn3c(N4CCOCC4)cnc3n2)c1)N1CC[C@H](F)C1 [Example 23a] | – | – | > 50.1 µM | – | > 50.1 µM | 31.6 µM
7 | C[C@H]1CCCN1C(=O)Nc1ccc(F)c(-c2ccn3c(N4CCOCC4)cnc3n2)c1 [Example 33a] | – | – | 12.6 to 39.8 µM | – | > 50.1 µM | 12.6 µM
8 | O=C(Nc1ccc(F)c(-c2ccn3c(C4CCOCC4)cnc3n2)c1)N1CCCC1 [Example 19, N-(4-fluoro-3-(3-(tetrahydro-2H-pyran-4-yl)imidazo[1,2-a]pyrimidin-7-yl)phenyl)pyrrolidine-1-carboxamide] | 39.8 µM | – | 0.126 to 10 µM | – | 0.251 to 10 µM | –
9 | O=C(Nc1ccc(F)c(-c2cnn3c(-c4ccccc4)cnc3n2)c1)N1CCCC1 [Example 7, N-(4-fluoro-3-(7-phenylimidazo[1,2-b][1,2,4]triazin-3-yl)phenyl)pyrrolidine-1-carboxamide] | 20 µM | – | – | – | 0.251 to 10 µM | –
10 | O=C(Nc1ccc(F)c(-c2ccn3c(-c4ccccc4)cnc3n2)c1)N1CCCC1 [Example 3, N-(4-fluoro-3-(3-phenylimidazo[1,2-a]pyrimidin-7-yl)phenyl)pyrrolidine-1-carboxamide] | – | 12.6 to 50.1 µM | 0.126 to 10 µM | – | 0.251 to 10 µM | –
11 | O=C(Nc1ccc(F)c(-c2ccn3c(N4CCCCC4)cnc3n2)c1)N1CCCC1 [Example 5, N-(4-fluoro-3-(3-(piperidin-1-yl)imidazo[1,2-a]pyrimidin-7-yl)phenyl)pyrrolidine-1-carboxamide] | – | 12.6 to 50.1 µM | 0.126 to 10 µM | – | 0.251 to 10 µM | –
